Assay results reported in patent US20120270237A9, “METHODS FOR THE IDENTIFICATION OF KINASE INTERACTING MOLECULES AND FOR THE PURIFICATION OF KINASE PROTEINS” (Cellzone AG, priority 2009, published 2012).

Experiments:
Test in all cases: Kinobeads competition binding, HeLa Placenta lysate mix
Settings in all cases: 10 μM free compound
AAK1 = AAK1 (Homo sapiens, UniProt Q2M2I8); set-up: endogenous in cells
Method: (§1) To one aliquot of cell lysate 10 μM of the free compound (FIG. 3, CZC31326) was added and allowed to bind to proteins in the lysate. Then the affinity matrix with the immobilized compound was added to capture proteins that were not interacting with the previously added free compound. Beads were separated from the lysate and bead bound proteins were eluted in SDS sample buffer and subsequently separated by SDS-Polyacrylamide gel electrophoresis (FIG. 10). Suitable gel bands were cut out and subjected to in-gel proteolytic digestion with trypsin. The second lysate aliquot was processed identically, however no free compound was added (DMSO solvent control). Peptides originating from samples 1 and 2 were labeled with iTRAQ reagents (iTRAQ 114 and iTRAQ 117) and the combined samples were analyzed with a nano-flow liquid chromatography system coupled online to a tandem mass spectrometer (LC-MS/MS) experiment followed by iTRAQ reporter ion quantification in the MS/MS spectra as described in Example 2.

DNAPK = DNAPK (Homo sapiens, UniProt P78527); set-up: endogenous in cells
Method: as §1

IRAK3 = IRAK3 (Homo sapiens, UniProt Q9Y616); set-up: endogenous in cells
Method: as §1

MAP2K1 = MAP2K1 (Homo sapiens, UniProt Q02750); set-up: endogenous in cells
Method: as §1

PKD2 = target: T1, PKD2 (Homo sapiens, UniProt Q9BZL6); set-up: endogenous in cells
T1 sequence (Q9BZL6 1-878): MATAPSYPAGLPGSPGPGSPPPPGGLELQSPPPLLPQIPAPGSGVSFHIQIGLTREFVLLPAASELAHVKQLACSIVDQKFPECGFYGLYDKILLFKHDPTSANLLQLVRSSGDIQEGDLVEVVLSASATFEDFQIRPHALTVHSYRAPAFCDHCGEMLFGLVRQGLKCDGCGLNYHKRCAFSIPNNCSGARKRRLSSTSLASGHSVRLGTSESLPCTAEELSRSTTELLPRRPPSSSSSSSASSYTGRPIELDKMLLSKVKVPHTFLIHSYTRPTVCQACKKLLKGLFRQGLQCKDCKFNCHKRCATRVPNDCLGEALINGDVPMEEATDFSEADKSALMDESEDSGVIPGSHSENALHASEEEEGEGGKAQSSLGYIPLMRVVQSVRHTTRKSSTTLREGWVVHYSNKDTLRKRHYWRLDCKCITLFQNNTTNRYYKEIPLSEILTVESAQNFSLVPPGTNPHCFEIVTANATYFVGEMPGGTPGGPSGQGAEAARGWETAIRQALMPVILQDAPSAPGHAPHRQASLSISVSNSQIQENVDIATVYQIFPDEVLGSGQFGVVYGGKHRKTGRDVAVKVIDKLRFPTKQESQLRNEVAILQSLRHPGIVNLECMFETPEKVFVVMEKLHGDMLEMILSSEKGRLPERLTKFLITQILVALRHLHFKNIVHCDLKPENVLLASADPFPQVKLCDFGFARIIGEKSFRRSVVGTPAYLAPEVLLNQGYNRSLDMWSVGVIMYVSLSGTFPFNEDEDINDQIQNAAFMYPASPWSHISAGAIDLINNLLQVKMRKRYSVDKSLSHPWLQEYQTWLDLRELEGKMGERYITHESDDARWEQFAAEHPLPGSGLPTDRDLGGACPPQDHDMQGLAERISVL
Method: as §1

ARG = ARG (Homo sapiens, UniProt P42684); set-up: capturing and identification of kinases from mixed HeLa placenta lysates; endogenous in cells; host or cells: mix of HeLa cell lysate and placenta tissue lysate
Method: as §1

CDK9 = CDK9 (Homo sapiens, UniProt P50750); set-up: capturing and identification of kinases from mixed HeLa placenta lysates; endogenous in cells; host or cells: mix of HeLa cell lysate and placenta tissue lysate
Method: as §1

CK2a2 = CK2a2 (Homo sapiens, UniProt P19784); set-up: capturing and identification of kinases from mixed HeLa placenta lysates; endogenous in cells; host or cells: mix of HeLa cell lysate and placenta tissue lysate
Method: as §1

MST2 = MST2 (Homo sapiens, UniProt Q13188); set-up: capturing and identification of kinases from mixed HeLa placenta lysates; endogenous in cells; host or cells: mix of HeLa cell lysate and placenta tissue lysate
Method: as §1

inhibition at 10 µM (AAK1): 94.5%
inhibition at 10 µM (DNAPK): 69.2%
inhibition at 10 µM (IRAK3): 92%
inhibition at 10 µM (MAP2K1): 83.7%
inhibition at 10 µM (PKD2): 95.4%
inhibition at 10 µM (ARG): 91.2%
inhibition at 10 µM (CDK9): 95.3%
inhibition at 10 µM (CK2a2): 95.4%
inhibition at 10 µM (MST2): 93.9%
Compound: CS(=O)(=O)Nc1ccccc1Nc1nc(Nc2cccc(OCCN)c2)ncc1Cl [CZC31326, N-(2-(2-(3-(2-aminoethoxy)phenylamino)-5-chloropyrimidin-4-ylamino)phenyl)methanesulfonamide]
